Results: publication PMC11854450 (RSC Chemical Biology, 2025)

Legend:
Experiment in all cases: fluorogenic activity assay
Format in all cases: biochemical
[1] = molecular target: active caspase-8 (Homo sapiens, UniProt Q14790); settings: 1 h pre-incubation; PBS
[2] = molecular target: T1, activeCASP10 (Homo sapiens, UniProt Q92851); settings: 333 nM enzyme; 1 h pre-incubation; PBS with 333 mM citrate
T1 sequence (Q92851 220-415): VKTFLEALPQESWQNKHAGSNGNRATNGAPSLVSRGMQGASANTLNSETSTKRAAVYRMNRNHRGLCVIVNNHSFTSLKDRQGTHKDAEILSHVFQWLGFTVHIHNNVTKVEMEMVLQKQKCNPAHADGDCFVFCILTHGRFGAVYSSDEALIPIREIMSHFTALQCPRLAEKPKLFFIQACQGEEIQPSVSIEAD
T1 sequence (Q92851 416-521): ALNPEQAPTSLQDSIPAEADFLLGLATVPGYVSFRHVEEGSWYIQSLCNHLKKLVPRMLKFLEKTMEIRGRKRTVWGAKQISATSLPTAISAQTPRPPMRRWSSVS

[3] = molecular target: T2, activeCASP-3 (Homo sapiens, UniProt P42574); settings: 0.3 μM enzyme; 1 h pre-incubation; PBS
T2 sequence (P42574 29-175): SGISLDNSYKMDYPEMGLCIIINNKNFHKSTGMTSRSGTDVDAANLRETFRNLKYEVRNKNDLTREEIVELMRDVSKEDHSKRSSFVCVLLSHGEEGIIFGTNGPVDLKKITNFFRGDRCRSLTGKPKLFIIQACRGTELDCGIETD
T2 sequence (P42574 176-277): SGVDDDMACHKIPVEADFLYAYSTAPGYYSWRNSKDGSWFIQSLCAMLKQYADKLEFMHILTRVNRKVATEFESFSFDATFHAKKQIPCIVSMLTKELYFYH

Chain of active caspase-8 (Q14790 217-374): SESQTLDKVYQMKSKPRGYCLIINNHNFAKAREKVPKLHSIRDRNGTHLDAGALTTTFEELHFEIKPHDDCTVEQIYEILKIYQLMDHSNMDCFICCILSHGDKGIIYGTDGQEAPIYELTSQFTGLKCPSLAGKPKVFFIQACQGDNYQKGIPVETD
Chain of active caspase-8 (Q14790 385-479): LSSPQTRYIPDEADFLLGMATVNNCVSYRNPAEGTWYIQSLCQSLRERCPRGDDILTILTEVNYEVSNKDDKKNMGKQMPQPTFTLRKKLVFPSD

NS(=O)(=O)C#Cc1ccccc1 [PFTμ, pifithrin-μ]
Relative activity [1]: PFTμ also significantly inhibited active caspase-3 and active caspase-8
Relative activity [2]: we found that PFTμ inhibited both proteoforms to some degree
Relative activity [3]: PFTμ also significantly inhibited active caspase-3 and active caspase-8
